Where a name gives a salt, the structure may show the parent alone. Read-outs that look alike come from different tables or passages of the source.
Experiments:
[1] = system: ddY male mice; assay: Acute toxicity; format: in vivo, mouse; conditions: 50 mg/kg intravenously, group of 3 ddY male mice
Text: A test compound dissolved in physiological saline was intravenously administered to a group of 3 ddY male mice (5-6 weeks old) to examine the acute toxicity of the test compound.

[2] = system: ddY female mouse; assay: Effect of test compound on hypoxia (antihypoxic activity); format: in vivo; conditions: po, read-out: Antihypoxic activity (%)
Experimental: A test compound dissolved in physiological saline (100 mg/kg) was orally administered to a ddY female mouse (5-6 weeks old, each group consisting of 10 mice). After 1 (or 30 minutes*) hour from the administration, each mouse was placed in a 300-ml glass chamber, and a gas mixture consisting of 4% of oxygen and 96% of nitrogen was passed through the chamber at a rate of 5 liters/min. A time from the start of gas passing to the death of each mouse was measured.
To a control mice group was orally administered only physiological saline.
The antihypoxic activity of the test compound was calculated from the following formula: [formula]

[3] = target: T1, acetylcholinesterase (Mus musculus, UniProt P21836); assay: Inhibitory activity for acetylcholinesterase (method of Ellman et al.); format: biochemical; conditions: final concentration of the test compound 10 µg/ml; mouse cerebral homogenate; read-out: Inhibition (%)
T1 construct: a mouse cerebral homogenate (as an acetylcholinesterase source); from tissue; host or cells: mouse cerebrum (homogenate)
Experimental: A test was conducted in accordance with the method of Ellman et al. [Biochem. Pharmacol., vol. 7, pp. 88-95, 1961].
That is, acetylthiocholine (as a substrate) was added to a phosphate buffer solution containing 5,5'-dithiobis-(2-nitrobenzoic acid) (DTNB), a test compound and a mouse cerebral homogenate (as an acetylcholinesterase source). The resulting mixture was incubated, and the amount of the resulting 5-thio-2-nitrobenzoic acid was photometrically measured at 412 nm.
The inhibitory activity for acetylcholinesterase of the test compound was expressed by the inhibition (%) when the final concentration of the test compound was 10 µg/ml.

[4] = 100 mg/kg orally, placed in chamber (4% oxygen, 96% nitrogen) after 1 hour from the administration, survival time relative to control
[5] = 0.5 h, 100 mg/kg orally, placed in chamber (4% oxygen, 96% nitrogen) after 30 minutes from the administration (values marked *), survival time relative to control

T1 sequence (P21836 32-614): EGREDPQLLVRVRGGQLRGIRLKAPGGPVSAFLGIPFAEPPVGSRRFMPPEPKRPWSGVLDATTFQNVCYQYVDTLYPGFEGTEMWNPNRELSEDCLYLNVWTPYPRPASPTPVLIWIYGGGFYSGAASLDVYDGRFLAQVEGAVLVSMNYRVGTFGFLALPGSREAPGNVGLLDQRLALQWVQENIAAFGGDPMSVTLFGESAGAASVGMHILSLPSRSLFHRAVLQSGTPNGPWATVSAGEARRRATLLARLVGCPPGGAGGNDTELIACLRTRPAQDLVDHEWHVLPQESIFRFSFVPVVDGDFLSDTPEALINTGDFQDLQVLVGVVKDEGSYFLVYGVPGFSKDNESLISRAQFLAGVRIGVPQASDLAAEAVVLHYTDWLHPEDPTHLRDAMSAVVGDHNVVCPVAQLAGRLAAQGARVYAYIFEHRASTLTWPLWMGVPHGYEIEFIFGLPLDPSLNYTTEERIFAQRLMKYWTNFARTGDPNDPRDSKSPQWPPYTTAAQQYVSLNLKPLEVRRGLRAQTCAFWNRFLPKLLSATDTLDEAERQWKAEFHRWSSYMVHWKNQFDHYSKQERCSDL

| Structure (SMILES) | Acute toxicity [1] | response vs control in vivo at 100 mg/kg [2, 5] | further results |
| --- | --- | --- | --- |
| CN(C)CCOCC(O)c1cccc(F)c1.Cl (centres unmarked) [Compound No. 1, 2-[2-(N,N-dimethylamino)ethoxy]-1-(3-fluorophenyl)ethanol hydrochloride] | no death case | – | response vs control in vivo at 100 mg/kg ([2]; 1 h): 155% |
| CN(C)CCOCC(O)c1cccc(C(F)(F)F)c1.Cl (centres unmarked) [Compound No. 42, 2-[2-(N,N-dimethylamino)ethoxy]-1-(3-trifluoromethylphenyl)ethanol hydrochloride] | no death case | – | response vs control in vivo at 100 mg/kg ([2]; 1 h): 194% |
| CN(C)CCOCC(O)c1ccc(OCc2ccccc2)cc1 (centres unmarked) [Compound No. 48, 1-(4-benzyloxyphenyl)-2-[2-(N,N-dimethylamino)ethoxy]ethanol hydrochloride] | – | – | inhibition at 10 µg/mL [3]: 51%; response vs control in vivo at 100 mg/kg ([2]; 1 h): 160% |
| CN(C)CCOCC(O)c1ccccc1 (centres unmarked) [compound 2] | no death case | – | response vs control in vivo at 100 mg/kg [2, 4]: 119% |
| CN(C)CCOC[C@H](O)c1ccccc1 [compound 3] | no death case | 245% | – |
| O=C1CCCN1CCOCC(O)c1ccccc1 (centres unmarked) [compound 9] | no death case | – | response vs control in vivo at 100 mg/kg [2, 4]: 113% |
| Cc1cccc(C(O)COCCN(C)C)c1.Cl (centres unmarked) [compound 15, 2-[2-(N,N-dimethylamino)ethoxy]-1-(3-methylphenyl)ethanol hydrochloride] | no death case | – | response vs control in vivo at 100 mg/kg ([2]; 0.5 h): 194% |
| Cc1ccc(C(O)COCCN(C)C)cc1 (centres unmarked) [compound 16] | no death case | – | response vs control in vivo at 100 mg/kg [2, 4]: 116% |
| CN(C)CCOCC(O)c1ccc(Cl)cc1 (centres unmarked) [compound 33] | no death case | 224% | – |
| CSc1ccc(C(O)COCCN(C)C)cc1 (centres unmarked) [compound 46] | no death case | 150% | – |
| OC(COCCC1CCN(Cc2ccccc2)CC1)c1ccccc1 (centres unmarked) [compound 60] | – | – | inhibition at 10 µg/mL [3]: 71% |
| Cc1cc(C)cc(Oc2ccc(C(O)COCCN(C)C)cc2)c1 (centres unmarked) [compound 72] | – | – | inhibition at 10 µg/mL [3]: 92% |
| CN(C)CCOCC(O)c1ccc(Oc2ccccc2)c(F)c1 (centres unmarked) [compound 73] | – | – | inhibition at 10 µg/mL [3]: 89% |
| OC(COCCC1CCN(Cc2ccccc2)CC1)c1ccc(Oc2ccccc2)cc1 (centres unmarked) [compound 78] | – | – | inhibition at 10 µg/mL [3]: 90% |
| CCN(CC)CCOCC(O)c1cccc(C)c1 (centres unmarked) [compound 90] | – | – | inhibition at 10 µg/mL [3]: 52% |
| CN(C)CCOC[C@H](O)c1ccc(OCc2ccccc2)cc1 [compound 103] | – | – | inhibition at 10 µg/mL [3]: 36% |
| OC(COC1CCN(Cc2ccccc2)CC1)c1ccccc1 (centres unmarked) [compound 113, 2-(1-benzylpiperidin-4-yloxy)-1-phenylethanol hydrochloride] | – | – | inhibition at 10 µg/mL [3]: 45% |
| Cn1cnc(COCC(O)c2ccccc2)c1 (centres unmarked) [compound 119] | no death case | 175% | – |
| OC(COCc1cccnc1)c1ccccc1 (centres unmarked) [compound 120] | no death case | 162% | – |

| Structure (SMILES) | Acute toxicity [1] | response vs control in vivo at 100 mg/kg [2, 5] | further results |
| --- | --- | --- | --- |
| OC(COCc1cccnc1)c1cccc(Cl)c1 (centres unmarked) [compound 126] | no death case | 172% | – |
| OC(COCc1c[nH]cn1)c1ccccc1 (centres unmarked) [compound 132] | no death case | 133% | – |
| OC(COCC1CNCCO1)c1ccccc1 (centres unmarked) [compound 151, 1-phenyl-2-[(morpholin-2-yl)methoxy]ethanol] | no death case | – | response vs control in vivo at 100 mg/kg [2, 4]: 182% |
| OC(COCCN1CCc2ccccc2C1)c1ccccc1 (centres unmarked) [compound 165] | – | – | inhibition at 10 µg/mL [3]: 24% |
| Cc1cccc(C(O)COCCC2CCNCC2)c1 (centres unmarked) [compound 176] | no death case | – | – |
| CC(=O)OC(COCCN1CCOCC1)c1cccc(C)c1 (centres unmarked) [compound 178, 1-acetoxy-1-(3-methylphenyl)-2-[2-(morpholin-4-yl)ethoxy]ethane] | no death case | – | – |
| CN(C)CCOCC(O)c1ccc2c(c1)OCCO2 (centres unmarked) [compound 194] | no death case | – | – |
| OC(COCCNC1CC1)c1ccccc1 (centres unmarked) [compound 209] | no death case | 148% | – |
| O[C@@H](COC[C@@H]1CNCCO1)c1ccccc1 [compound 219, (1R,2'S)-1-phenyl-2-[(morpholin-2-yl)methoxy]ethanol maleate] | no death case | 222% | – |
| O[C@H](COC[C@H]1CNCCO1)c1ccccc1 [compound 220, (1S,2'R)-1-phenyl-2-[(morpholin-2-yl)methoxy]ethanol maleate] | no death case | 183% | – |
| O[C@@H](COC[C@H]1CNCCO1)c1ccccc1 [compound 221, (1R,2'R)-1-phenyl-2-[(morpholin-2-yl)methoxy]ethanol oxalate] | no death case | 183% | – |
| CN(C)CCOCC(O)c1ccc2ccccc2c1.Cl (centres unmarked) [compound 229, 2-[2-(N,N-dimethylamino)ethoxy]-1-(2-naphthyl)ethanol hydrochloride] | no death case | – | response vs control in vivo at 100 mg/kg ([2]; 1 h): 123% |
| CN(C)CCCOCC(O)c1cccc2ccccc12 (centres unmarked) [compound 233] | – | – | inhibition at 10 µg/mL [3]: 59% |
| Cc1ccc2cc(C(O)COCCN(C)C)ccc2c1 (centres unmarked) [compound 235] | no death case | – | – |
| COc1ccc2cc(C(O)COCCN(C)C)ccc2c1 (centres unmarked) [compound 236] | no death case | – | response vs control in vivo at 100 mg/kg [2, 4]: 177% |
| CN(CCOCC(O)c1cccc2ccccc12)Cc1ccccc1 (centres unmarked) [compound 241] | – | – | inhibition at 10 µg/mL [3]: 31% |
| CN(C)CCOCC(O)c1ccc2c(c1)CCCC2 (centres unmarked) [compound 251] | no death case | 186% | – |
| OC(COCC1CNCCO1)c1ccc2ccccc2c1 (centres unmarked) [compound 256, 1-(2-naphthyl)-2-[(morpholin-2-yl)methoxy]ethanol 1/2 fumarate] | no death case | – | response vs control in vivo at 100 mg/kg [2, 4]: 154% |
| OC(COCc1cnc[nH]1)c1cccc2ccccc12 (centres unmarked) [compound 279] | no death case | – | response vs control in vivo at 100 mg/kg [2, 4]: 198% |

| Structure (SMILES) | Acute toxicity [1] | response vs control in vivo at 100 mg/kg [2, 5] | further results |
| --- | --- | --- | --- |
| Cn1cncc1COCC(O)c1cccc2ccccc12 (centres unmarked) [compound 283, 2-(1-methylimidazol-5-yl)methoxy-1-(1-naphthyl)ethanol] | no death case | – | response vs control in vivo at 100 mg/kg [2, 4]: 183% |
| CN(C)CCOCC(O)c1ccc2sccc2c1.Cl (centres unmarked) [compound 312, 1-(benzo[b]thiophen-5-yl)-2-[2-(N,N-dimethylamino)ethoxy]ethanol hydrochloride] | no death case | – | response vs control in vivo at 100 mg/kg ([2]; 0.5 h): 221% |
| CN(C)CCOCC(O)c1cccs1 (centres unmarked) [compound 313] | no death case | 154% | – |
| CN(C)CCOCC(O)c1cccnc1 (centres unmarked) [compound 315] | no death case | – | – |
| CN(C)CCOCC(O)c1ccoc1 (centres unmarked) [compound 316] | no death case | – | – |
| CN(C)CCOCC(O)c1ccc2c(c1)CC(=O)N2 (centres unmarked) [compound 322] | – | – | inhibition at 10 µg/mL [3]: 20% |
| CN(C)CCOCC(O)c1ccc2occc2c1 (centres unmarked) [compound 325] | no death case | 217% | – |
| OC(COCCN1CCOCC1)c1ccc2sccc2c1 (centres unmarked) [compound 327] | no death case | 160% | – |
| CN(C)CCOCC(O)c1ccc2c(c1)CCN2 (centres unmarked) [compound 329] | – | – | inhibition at 10 µg/mL [3]: 45% |
| CN(C)CCCCOCC(O)c1ccc2sccc2c1 (centres unmarked) [compound 337] | no death case | 309% | – |
| O=C1CCc2cc(C(O)COCc3cccnc3)ccc2N1 (centres unmarked) [compound 341] | – | – | inhibition at 10 µg/mL [3]: 61% |
| OC(COCCN1CCN(c2ncccn2)CC1)c1ccc2sccc2c1 (centres unmarked) [compound 352] | – | – | inhibition at 10 µg/mL [3]: 26% |
| Cl.O=C(NCCOCC(O)c1ccc2sccc2c1)c1cccnc1 (centres unmarked) [compound 360, 1-(benzo[b]thiophen-5-yl)-2-[2-(nicotinoylamino)ethoxy]ethanol hydrochloride] | no death case | – | – |
| CN(C)CCOCC(O)c1ccc(Cl)s1 (centres unmarked) [compound 368] | no death case | 135% | – |
| NCCOCC(O)c1ccc2occc2c1 (centres unmarked) [compound 369] | no death case | 143% | – |
| CN(C)CCOCC(O)c1nccn1Cc1ccccc1 (centres unmarked) [compound 372] | – | – | inhibition at 10 µg/mL [3]: 30% |
| CNCCOCC(O)c1cc2ccccc2s1 (centres unmarked) [compound 375] | no death case | 156% | – |
| Cc1ccc2sc(C(O)COCCN(C)C)cc2c1 (centres unmarked) [compound 385] | no death case | 161% | – |
| CN(C)CCCOCC(O)c1ccc2occc2c1 (centres unmarked) [compound 390] | no death case | 248% | – |
